A word on the Ki: it is a dissociation constant, usually derived from enzyme kinetics or from competition with a known ligand. One may read the Papp as the rate of passage across a membrane or cell layer, normalised by area and donor concentration. A higher Papp goes with fast passage.

In one data set the test system is hepatoma HepG2 cell line. Briefly: Hepatotoxicity assay, HepG2 cell viability. To be noted: HepG2, 0.1-100 µM, 72 h. The format is cell-based. The protocol:
The cell-based assays were used to investigate safety of the 5-HT6R ligands. […] During the same study, no effect for KMP-10 was observed. Additional safety tests with the hepatoma HepG2 cell line were performed here to estimate the compounds’ hepatotoxicity. A slight antiproliferative effect was observed only for DJ-18 at 100 µM, where the cell viability was decreased to up to ~83% of the control (Figure 9a).
Hepatotoxicity was estimated using the hepatoma HepG2 (ATCC® HB-8065^TM) cell line according to previously described protocols. The CellTiter 96® AQueous Non-Radioactive Cell Proliferation Assay was obtained from Promega (Madison, WI, USA). The compounds were investigated in quadruplicate at four concentrations (0.1–100 µM) for 72h. The antiproliferative drug DX was used as a positive control at a dose of 1 µM.

Data set [1] is described as follows: Novel object recognition (NOR) test. The format is in vivo, male Wistar rats. Conditions: rats. The protocol:
The experiments were performed on male Wistar rats (200–220 g) obtained from an accredited animal facility at the Jagiellonian University Medical College, Poland. The animals were housed in group of four in controlled environment (ambient temperature 21 ± 2 °C; relative humidity 50%–60%; 12-h light/dark cycles (lights on at 8:00). Standard laboratory food (LSM-B) and filtered water were freely available. Animals were randomly assigned to treatment groups. All the experiments were performed by two observers unaware of the studied treatment between 9:00 and 14:00 on separate groups of animals. All animals were used only once. Procedures involving animals and their care were conducted in accordance with current European Community and Polish legislation on animal experimentation. Additionally, all efforts were made to minimize animal suffering and to use only the number of animals necessary to produce reliable scientific data. […]
The animals explored the objects by looking, licking, sniffing or touching the object but not when leaning against, standing or sitting on the object. […] The exploration time of the objects was measured by blind experimenter. Based on exploration time (E) of the two objects during T2, the discrimination index (DI) was calculated according to the formula: DI = (EB − EA)/(EA + EB). […]

Data set [2] in a line: Food and water intake, rats fed standard diet only. The format is in vivo, male Wistar rats. Conditions: 5 mg/kg b.w. i.p., vs control group. The protocol:
The experiments were carried out on male Wistar rats. Their initial body weight was 210–230 g. The animals were housed in pairs in plastic cages in constant temperature facilities exposed to a light–dark cycle; water and food were available ad libitum. The control and experimental groups consisted of eight animals each. All experiments were conducted according to the guidelines of the Animal Use and Care Committee of the Jagiellonian University and were approved for realization (2013 and 2015, Poland; Permissions No 136/2013 and 258/2015).
The standard diet contained 100 g of feed—280 kcal.
Male Wistar rats (190–220 g) were housed in pair. The control group (standard diet + vehicle) received vehicle (1% Tween 80, i.p.), while the test group (standard diet + KMP-10 5 mg) was intraperitoneally injected with KMP-10 at the dose 5 mg/kg b.w./day dissolved in 1% Tween 80. The intakes of food and water were evaluated daily.

A further data set concerns the target 5-HT6. The arrangement: method as in PMID 30282913. Conditions: radioligand binding, average of at least two independent experiments; read-out: Ki 5-HT6 [3H]-LSD; cited from earlier work.
Another data set has as its target 5-HT7. On the set-up: method as in PMID 30282913. Conditions: radioligand binding, average of at least two independent experiments; read-out: Ki 5-HT7 [3H]-5-CT; cited from earlier work.
The test system of data set [3] is human embryonic kidney (HEK)-293 cells. On the set-up: method as in PMID 30282913. Conditions: highest concentration 100 µM; cited from earlier work.
Details of data set [4]: method as in PMID 30282913. Conditions: cited from earlier work.
Data set [5] in a line: Parallel artificial membrane permeability assay (PAMPA).

“And” between values parts separate entries of the source, which are not always exact repeats. Equal values may be shown once.

Consider `CN1CCN(c2nc(N)nc(CN3C(=O)NC(C)(c4ccc5ccccc5c4)C3=O)n2)CC1` (centres unmarked) [KMP-10, 3-((4-amino-6-(4-methylpiperazin-1-yl)-1,3,5-triazin-2-yl)methyl)-5-methyl-5-(naphthalen-2-yl)imidazolidine-2,4-dione], for which the Hepatotoxic character result in the data set on hepatoma HepG2 cell line is recorded as “did not show any hepatotoxic character”. Also, the “Memory deficits induced by scopolamine in NOR test” value in data set [1] (full dose-range 0.3–3 mg/kg i.p.) was “significantly and dose-dependently reversed”. Besides, in data set [1] (some activity at 1 mg/kg i.p.), the “Memory impairment induced by MK-801 in NOR test, discrimination index” value is on record as “did not reach a statistically significant level”. Further, in data set [2], the “Amount of calories consumed” value was “significantly reduced” and the Water intake entry is “significantly lower”. Besides, the inhibition constant (Ki) on 5-HT6 was 87 nM. Also, the Ki at 5-HT7 was 514 nM. The HEK-293 cells viability entry in data set [3] is on record as “no effect”. Moreover, in data set [4], the “Antidepressive-like properties in the Porsolt model” value was “antidepressive-like properties”. Further, the apparent permeability (Papp) at 5 h, 200 µM in data set [5] (PAMPA, pH 7.4) was 3.76 ± 0.76 ×10⁻⁶ cm/s. Also, the “PAMPA permeability, fold weaker than caffeine” value in data set [5] (vs caffeine) is ~ 4 fold and 4 fold.

The values are drawn from PMC6943527, “Are the Hydantoin-1,3,5-triazine 5-HT6R Ligands a Hope to a Find New Procognitive and Anti-Obesity Drug? Considerations Based on Primary In Vivo Assays and ADME-Tox Profile In Vitro” (Molecules, 2019).
